Laboratory results reported in the CheMixHub ionic liquid set.

Assay: xn = mol fraction of the nth substance listed

CC(=O)[O-].CCCCCC[n+]1ccccc1 + O
electrical conductivity [S/m], 101 kPa
Conditions	x1 = 0.8711	x1 = 0.8907	x1 = 0.9081	x1 = 0.9293	x1 = 0.9699	x2 = 0.007385
293.15 K	0.00457	0.00421	0.00389	0.00337	0.00259	0.00201
298.15 K	0.0076	0.00693	0.00609	0.00551	0.00409	0.00282
303.15 K	0.0127	0.0115	0.0102	0.009	0.00656	0.005
308.15 K	0.0171	0.0156	0.0139	0.0122	0.00887	0.00746
313.15 K	0.0256	0.0229	0.0209	0.0181	0.014	0.0112
318.15 K	0.0371	0.0331	0.03	0.0264	0.019	0.0155
323.15 K	0.0501	0.0451	0.041	0.0365	0.0271	0.0224
328.15 K	0.067	0.0608	0.0551	0.0496	0.0372	0.0318
333.15 K	0.091	0.081	0.0727	0.0639	0.0487	0.0414
338.15 K	0.124	0.111	0.101	0.0894	0.0694	0.0592
343.15 K	0.163	0.148	0.135	0.119	0.0952	0.0819

CCC[n+]1ccccc1.N#C[N-]C#N + O
100 kPa
Conditions	electrical conductivity [S/m]	viscosity [mPa·s]
298.15 K, x1 = 0.9303	1.49	–
298.15 K, x1 = 0.9562	–	22.43
298.15 K, x1 = 0.9708	–	23.39
303.15 K, x1 = 0.9303	1.68	–
303.15 K, x1 = 0.9442	1.64	–
303.15 K, x1 = 0.9731	1.57	–
313.15 K, x1 = 0.9277	–	13.05
313.15 K, x1 = 0.9562	–	13.71
313.15 K, x2 = 0.01178	2.12	–
318.15 K, x1 = 0.9442	2.6	–
318.15 K, x1 = 0.9708	–	12.47
323.15 K, x1 = 0.9277	–	9.72
323.15 K, x1 = 0.9442	2.95	–
323.15 K, x1 = 0.9731	2.87	–
328.15 K, x1 = 0.9417	–	8.63
328.15 K, x1 = 0.9562	–	8.88
333.15 K, x1 = 0.9442	3.81	–
333.15 K, x1 = 0.9731	3.72	–
338.15 K, x1 = 0.9562	–	7.17
338.15 K, x1 = 0.9584	4.22	–

CCCCCCCCCCCCCC[P+](CCCCCC)(CCCCCC)CCCCCC.[c-]1c[nH]nn1 + CCCCCC[n+]1ccn(C)c1.O=S(=O)([N-]S(=O)(=O)C(F)(F)F)C(F)(F)F
viscosity [mPa·s], 100 kPa
Conditions	278.15 K	283.15 K	288.15 K	293.15 K	298.15 K	303.15 K	308.15 K	313.15 K	318.15 K	323.15 K
x2 = 0.135	2499	1630	1087	744	527	382	284	215	166	131
x2 = 0.3	2448	1593	1061	725	511	369	274	206	159	125
x2 = 0.348	2031	1329	890	614	437	317	236	180	139	109
x2 = 0.45	1597	1057	717	498	358	262	197	151	118	94
x2 = 0.58	1211	820	567	402	294	219	168	131	104	84
x2 = 0.698	755	522	369	268	200	152	119	94	76	62
x2 = 0.849	417	295	214	159	122	96	77	62	51	–

C[NH2+]CCC=C1c2ccccc2CCc2ccccc21.[Cl-] + CC[n+]1ccn(C)c1.[Br-] + O
viscosity [mPa·s], 100 kPa
Conditions	288.15 K	298.15 K	308.15 K	318.15 K
x1 = 0.0001985, x2 = 0.0001801	1.149	0.92	0.754	0.638
x1 = 0.0002171, x2 = 0.0007201	1.157	0.927	0.76	0.645
x1 = 0.0002197, x2 = 0.00126	1.164	0.936	0.768	0.653
x1 = 0.0005409, x2 = 0.0001801	1.158	0.928	0.761	0.646
x1 = 0.00056, x2 = 0.001259	1.173	0.944	0.776	0.662
x1 = 0.0005649, x2 = 0.0007199	1.166	0.935	0.768	0.653
x1 = 0.0009071, x2 = 0.0007196	1.176	0.944	0.776	0.66
x1 = 0.0009111, x2 = 0.00018	1.168	0.936	0.769	0.652
x1 = 0.0009287, x2 = 0.001259	1.183	0.952	0.784	0.67
x1 = 0.001275, x2 = 0.001258	1.194	0.962	0.792	0.678
x1 = 0.001279, x2 = 0.0001799	1.179	0.945	0.776	0.659
x1 = 0.001292, x2 = 0.0007194	1.187	0.953	0.784	0.667
x1 = 0.001649, x2 = 0.0007191	1.199	0.963	0.792	0.674
x1 = 0.001657, x2 = 0.0001799	1.19	0.954	0.784	0.666
x1 = 0.001661, x2 = 0.001258	1.206	0.972	0.8	0.686
x1 = 0.002001, x2 = 0.0001798	1.201	0.964	0.792	0.674
x1 = 0.002028, x2 = 0.0007188	1.211	0.974	0.8	0.681
x1 = 0.002029, x2 = 0.001257	1.218	0.982	0.809	0.694
x1 = 0.002358, x2 = 0.0001797	1.213	0.975	0.801	0.682
x1 = 0.002375, x2 = 0.001257	1.231	0.993	0.818	0.702
x1 = 0.002379, x2 = 0.0007186	1.223	0.984	0.808	0.689
x1 = 0.002737, x2 = 0.0001797	1.226	0.986	0.81	0.691
x1 = 0.002745, x2 = 0.001256	1.244	1.004	0.827	0.71
x1 = 0.002757, x2 = 0.0007183	1.236	0.994	0.817	0.698
x1 = 0.00309, x2 = 0.001256	1.258	1.015	0.836	0.718
x1 = 0.003104, x2 = 0.0001796	1.24	0.997	0.819	0.7
x1 = 0.003108, x2 = 0.000718	1.249	1.005	0.826	0.707
x1 = 0.003467, x2 = 0.0001795	1.255	1.008	0.829	0.709
x1 = 0.003489, x2 = 0.0007178	1.263	1.016	0.836	0.716
x1 = 0.00349, x2 = 0.001255	1.272	1.026	0.846	0.725

CCCC[N+](CCCC)(CCCC)CCCC.[Cl-] + CC(C)[C@H](N)C(=O)O
100 kPa
Conditions	electrical conductivity, 313.15 K [S/m]	electrical conductivity, 323.15 K [S/m]	electrical conductivity, 333.15 K [S/m]	electrical conductivity, 343.15 K [S/m]	electrical conductivity, 353.15 K [S/m]	viscosity, 313.15 K [mPa·s]	viscosity, 323.15 K [mPa·s]	viscosity, 333.15 K [mPa·s]	viscosity, 343.15 K [mPa·s]	viscosity, 353.15 K [mPa·s]
x1 = 0.9	0.041	0.059	0.082	0.0989	0.123	800	460	258	145	82
x1 = 0.9091	0.029	0.041	0.055	0.0751	0.095	900	510	256	146	82
x1 = 0.9167	0.038	0.05	0.07	0.0901	0.116	587	313	196	105	63

CCCC[n+]1ccn(C)c1.[Br-] + CCCCOCCO
viscosity [mPa·s], 100 kPa
Conditions	x1 = 0.1007	x1 = 0.2003	x1 = 0.3007	x1 = 0.4003	x1 = 0.5	x1 = 0.5992	x1 = 0.7002	x1 = 0.8003	x1 = 0.8978	x1 = 1
298.15 K	18.4	56.8	108	155	201	263	374	577	920	1451
303.15 K	12.2	32.5	59.6	86.7	115	152	212	320	511	837
308.15 K	9.08	22.8	40.7	59.4	77	98	132	187	297	506
313.15 K	6.85	16.2	29.1	41.7	54.2	67.6	87.9	122	188	330

N#CCCCCC#N + CCCC[n+]1ccn(C)c1.O=S(=O)([N-]S(=O)(=O)C(F)(F)F)C(F)(F)F
Conditions	electrical conductivity [S/m]
294.5 K, 100 kPa, x2 = 0.02785	0.29
